The subject of series [1] is 293-T-Rex cells expressing murine IDO. The experiment in a line: Toxicity / cell viability (LD50) in the murine IDO cell based assay.
For another series, the target named is human IDO (Homo sapiens, UniProt P14902). Put plainly: Cell based IDO/kynurenine assay in IDO-293-T-Rex cells. The conditions noted are these: kynurenine production, 293T cells expressing human IDO, read-out: hIDO EC50. A digest of the protocol: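 293-T-REx cells stably carrying doxycycline-inducible human or murine IDO were incubated with inhibitors in induction medium for 16 h at 37° C. Medium was TCA-treated at 60° C and reacted with p-dimethylaminobenzaldehyde. Kynurenine was quantified by absorbance at 480 nm.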
human IDO, sequence (P14902 whole entry): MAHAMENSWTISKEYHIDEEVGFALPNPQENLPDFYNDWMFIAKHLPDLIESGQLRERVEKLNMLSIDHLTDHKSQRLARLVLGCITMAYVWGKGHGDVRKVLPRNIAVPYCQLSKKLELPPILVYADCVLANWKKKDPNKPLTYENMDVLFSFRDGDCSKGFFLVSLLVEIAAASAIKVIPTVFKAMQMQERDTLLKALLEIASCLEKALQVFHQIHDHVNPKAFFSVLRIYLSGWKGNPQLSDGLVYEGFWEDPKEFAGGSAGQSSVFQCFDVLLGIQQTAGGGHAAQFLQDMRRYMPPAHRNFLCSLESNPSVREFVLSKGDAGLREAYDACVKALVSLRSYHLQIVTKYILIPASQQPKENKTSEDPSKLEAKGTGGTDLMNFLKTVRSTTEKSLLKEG

Series [2] addresses purified human IDO protein (Homo sapiens, UniProt P14902). The experiment in a line: Enzymatic IDO assay (kynurenine production, absorbance 480 nm). The conditions noted are these: recombinant human IDO, enzymatic activity.
Another series relates to IDO-293-T-Rex cells. The protocol: To measure the toxicity of each compound after 16 h incubation with cells, cell viability is measured via a WST-1 assay (Roche) according to instructions from the manufacturer. Briefly, after the incubation with each compound, medium is aspirated and replaced with […] of WST-1 reagent, and incubated 30 min at 37° C. Absorbance at 540 nm is correlated with the number of viable cells. Determination of IC50 (Kynurenine assay) or LD50 (WST-1 assay) is performed via non-linear regression analysis using GraphPad Prism software.
Viability was measure by the WST assay as described in one of the examples.

The target in another series is T1, murine IDO (Mus musculus, UniProt P28776).
T1 construct: expressed in transfected cells; host or cells: 293-T-REx cells (Invitrogen), doxycycline-inducible CMV-tet promoter
T1 sequence (P28776 whole entry): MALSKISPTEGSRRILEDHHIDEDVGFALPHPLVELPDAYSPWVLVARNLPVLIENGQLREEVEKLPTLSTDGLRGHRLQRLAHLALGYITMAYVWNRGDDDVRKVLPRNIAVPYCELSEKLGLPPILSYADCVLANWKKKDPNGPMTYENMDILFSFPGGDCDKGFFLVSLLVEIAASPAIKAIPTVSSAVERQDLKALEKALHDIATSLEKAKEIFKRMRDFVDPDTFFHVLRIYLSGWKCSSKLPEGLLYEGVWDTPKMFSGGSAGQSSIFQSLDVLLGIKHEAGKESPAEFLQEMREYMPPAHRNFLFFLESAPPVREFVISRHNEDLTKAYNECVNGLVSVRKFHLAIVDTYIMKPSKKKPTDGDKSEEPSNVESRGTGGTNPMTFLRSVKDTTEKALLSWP
The experiment in a line: Cell based IDO/kynurenine assay in 293-T-Rex cells expressing murine IDO. The conditions noted are these: cells expressing murine IDO, read-out: mIDO EC50.

Results on two molecules are retold here after patent publication US20130289083A1, “IDO Inhibitors” (priority 2007, published 2013).

What is called pEC50 is −log10 of the EC50, conventionally taken in molar units. What is called pIC50 is the IC50 on a negative log10 scale, so that one unit is a factor of ten.

SMILES strings stand for the structures. pEC50, pIC50: −log10 of the molar value. Like-named read-outs stand apart in the source and are kept apart here. Where only a bound is given, the exact number is not on record here.

purified human IDO protein, sequence (P14902 whole entry P110S/E119G): as the sequence (P14902 whole entry) above, with P110S, E119G counted along it

As to `NOCc1ccc(I)cc1` [compound 1818, O-(4-iodobenzyl)hydroxylamine], the “mIDO LD50” value in series [1] is “D (key: A: <10 μM; B: 10-100 μM; C: 100-1000 μM; D>1000 μM)”. The pEC50 on human IDO (Table 16) is more than 5.00; at murine IDO (Table 16), 4.00 to 5.00. For the same molecule, the pIC50 in series [2] (hIDO IC50, Table 16) is more than 5.00. In addition, the “hIDO LD50” value in the series with IDO-293-T-Rex cells is on record as “D (key: A: <10 μM; B: 10-100 μM; C: 100-1000 μM; D>1000 μM)”.
On to `N#Cc1ccc(CON)cc1` [compound 1896, 4-(aminooxymethyl)benzonitrile], for which, in series [1] (Table 15, cell viability loss, murine IDO cell based assay), the “mIDO LD50” value is recorded as “D (D>1000 μM)”. Further, the figures for the pEC50 on human IDO (Table 15) and on murine IDO (Table 15) were more than 5.00 and 4.00 to 5.00, respectively. Further, the pIC50 in series [2] (hIDO IC50, Table 15) is more than 5.00. The “hIDO LD50” value with IDO-293-T-Rex cells (Table 15, 50% cell viability loss, WST assay, human IDO cell based assay) was “D (D>1000 μM)”.
